# Data: ChEMBL document CHEMBL1131813, “9-Deoxopodophyllotoxin derivatives as anti-cancer agents” (1999)
# System: A498
# Test: In vitro cytotoxic activity against renal (A 498) cancer cell line.
# Type: functional
# Conditions: Homo sapiens
row,SMILES,GI50
1,COc1cc([C@@H]2c3cc4c(cc3[C@H](O)[C@H]3COC(OCCF)[C@H]23)OCO4)cc(OC)c1OC (stereo not given in full),80 µM
2,COc1cc([C@@H]2c3cc4c(cc3[C@@H](O)[C@H]3COC(CC(C)=O)[C@@H]23)OCO4)cc(OC)c1O (stereo not given in full),0.08 µM
3,COCCOC1OC[C@H]2[C@H]1[C@H](c1cc(OC)c(OC)c(OC)c1)c1cc3c(cc1[C@@H]2O)OCO3 (stereo not given in full),0.05 µM
4,COc1cc([C@@H]2c3cc4c(cc3[C@H](O)[C@H]3COC(CCO)[C@H]23)OCO4)cc(OC)c1OC (stereo not given in full),0.05 µM
5,COC(=O)CC1OC[C@H]2[C@H]1[C@H](c1cc(OC)c(OC)c(OC)c1)c1cc3c(cc1[C@@H]2O)OCO3 (stereo not given in full),< 0.01 µM
6,COC(=O)CC1OC[C@H]2[C@H]1[C@H](c1cc(OC)c(O)c(OC)c1)c1cc3c(cc1[C@H]2O)OCO3 (stereo not given in full),> 100 µM
7,COc1cc([C@@H]2c3cc4c(cc3[C@H](O)[C@H]3COC(CC(C)=O)[C@H]23)OCO4)cc(OC)c1OC (stereo not given in full),0.02 µM
8,COc1cc([C@@H]2c3cc4c(cc3[C@H](O)[C@H]3COC(OCCO)[C@H]23)OCO4)cc(OC)c1OC (stereo not given in full),0.01 µM
9,COc1cc([C@@H]2c3cc4c(cc3[C@@H](O[C@@H]3O[C@@H]5CO[C@@H](C)O[C@H]5[C@H](O)[C@H]3O)[C@H]3COC(=O)[C@H]23)OCO4)cc(OC)c1O [ETOPOSIDE],8 µM
10,COc1cc([C@@H]2c3cc4c(cc3[C@H](O)[C@H]3COC(=O)[C@H]23)OCO4)cc(OC)c1OC [PODOFILOX],0.08 µM

# System: DU-145
# Test: In vitro cytotoxic activity against prostate (DU-145) cancer cell line.
# Type: functional
# Conditions: Homo sapiens
row,SMILES,GI50
1,COc1cc([C@@H]2c3cc4c(cc3[C@H](O)[C@H]3COC(OCCF)[C@H]23)OCO4)cc(OC)c1OC (stereo not given in full),80 µM
2,COc1cc([C@@H]2c3cc4c(cc3[C@@H](O)[C@H]3COC(CC(C)=O)[C@@H]23)OCO4)cc(OC)c1O (stereo not given in full),0.1 µM
3,COCCOC1OC[C@H]2[C@H]1[C@H](c1cc(OC)c(OC)c(OC)c1)c1cc3c(cc1[C@@H]2O)OCO3 (stereo not given in full),7 µM
4,COc1cc([C@@H]2c3cc4c(cc3[C@H](O)[C@H]3COC(CCO)[C@H]23)OCO4)cc(OC)c1OC (stereo not given in full),0.5 µM
5,COC(=O)CC1OC[C@H]2[C@H]1[C@H](c1cc(OC)c(OC)c(OC)c1)c1cc3c(cc1[C@@H]2O)OCO3 (stereo not given in full),60 µM
6,COC(=O)CC1OC[C@H]2[C@H]1[C@H](c1cc(OC)c(O)c(OC)c1)c1cc3c(cc1[C@H]2O)OCO3 (stereo not given in full),> 100 µM
7,COc1cc([C@@H]2c3cc4c(cc3[C@H](O)[C@H]3COC(CC(C)=O)[C@H]23)OCO4)cc(OC)c1OC (stereo not given in full),20 µM
8,COc1cc([C@@H]2c3cc4c(cc3[C@H](O)[C@H]3COC(OCCO)[C@H]23)OCO4)cc(OC)c1OC (stereo not given in full),20 µM
9,COc1cc([C@@H]2c3cc4c(cc3[C@@H](O[C@@H]3O[C@@H]5CO[C@@H](C)O[C@H]5[C@H](O)[C@H]3O)[C@H]3COC(=O)[C@H]23)OCO4)cc(OC)c1O [ETOPOSIDE],2 µM
10,COc1cc([C@@H]2c3cc4c(cc3[C@H](O)[C@H]3COC(=O)[C@H]23)OCO4)cc(OC)c1OC [PODOFILOX],0.04 µM

# System: M14
# Test: In vitro cytotoxic activity against melanoma (M 14) cancer cell line.
# Type: functional
# Conditions: Homo sapiens
row,SMILES,GI50
1,COc1cc([C@@H]2c3cc4c(cc3[C@H](O)[C@H]3COC(OCCF)[C@H]23)OCO4)cc(OC)c1OC (stereo not given in full),60 µM
2,COc1cc([C@@H]2c3cc4c(cc3[C@@H](O)[C@H]3COC(CC(C)=O)[C@@H]23)OCO4)cc(OC)c1O (stereo not given in full),0.8 µM
3,COCCOC1OC[C@H]2[C@H]1[C@H](c1cc(OC)c(OC)c(OC)c1)c1cc3c(cc1[C@@H]2O)OCO3 (stereo not given in full),> 100 µM
4,COc1cc([C@@H]2c3cc4c(cc3[C@H](O)[C@H]3COC(CCO)[C@H]23)OCO4)cc(OC)c1OC (stereo not given in full),> 100 µM
5,COC(=O)CC1OC[C@H]2[C@H]1[C@H](c1cc(OC)c(OC)c(OC)c1)c1cc3c(cc1[C@@H]2O)OCO3 (stereo not given in full),> 100 µM
6,COC(=O)CC1OC[C@H]2[C@H]1[C@H](c1cc(OC)c(O)c(OC)c1)c1cc3c(cc1[C@H]2O)OCO3 (stereo not given in full),> 100 µM
7,COc1cc([C@@H]2c3cc4c(cc3[C@H](O)[C@H]3COC(CC(C)=O)[C@H]23)OCO4)cc(OC)c1OC (stereo not given in full),20 µM
8,COc1cc([C@@H]2c3cc4c(cc3[C@H](O)[C@H]3COC(OCCO)[C@H]23)OCO4)cc(OC)c1OC (stereo not given in full),60 µM
9,COc1cc([C@@H]2c3cc4c(cc3[C@@H](O[C@@H]3O[C@@H]5CO[C@@H](C)O[C@H]5[C@H](O)[C@H]3O)[C@H]3COC(=O)[C@H]23)OCO4)cc(OC)c1O [ETOPOSIDE],< 0.01 µM
10,COc1cc([C@@H]2c3cc4c(cc3[C@H](O)[C@H]3COC(=O)[C@H]23)OCO4)cc(OC)c1OC [PODOFILOX],0.07 µM

# System: NCI/ADR-RES
# Test: In vitro cytotoxic activity against ADR resistant breast cancer (MCF-7-ADR) cell line.
# Type: functional
# Conditions: Homo sapiens
row,SMILES,GI50
1,COc1cc([C@@H]2c3cc4c(cc3[C@H](O)[C@H]3COC(OCCF)[C@H]23)OCO4)cc(OC)c1OC (stereo not given in full),50 µM
2,COc1cc([C@@H]2c3cc4c(cc3[C@@H](O)[C@H]3COC(CC(C)=O)[C@@H]23)OCO4)cc(OC)c1O (stereo not given in full),0.8 µM
3,COCCOC1OC[C@H]2[C@H]1[C@H](c1cc(OC)c(OC)c(OC)c1)c1cc3c(cc1[C@@H]2O)OCO3 (stereo not given in full),> 100 µM
4,COc1cc([C@@H]2c3cc4c(cc3[C@H](O)[C@H]3COC(CCO)[C@H]23)OCO4)cc(OC)c1OC (stereo not given in full),> 100 µM
5,COC(=O)CC1OC[C@H]2[C@H]1[C@H](c1cc(OC)c(OC)c(OC)c1)c1cc3c(cc1[C@@H]2O)OCO3 (stereo not given in full),70 µM
6,COC(=O)CC1OC[C@H]2[C@H]1[C@H](c1cc(OC)c(O)c(OC)c1)c1cc3c(cc1[C@H]2O)OCO3 (stereo not given in full),60 µM
7,COc1cc([C@@H]2c3cc4c(cc3[C@H](O)[C@H]3COC(CC(C)=O)[C@H]23)OCO4)cc(OC)c1OC (stereo not given in full),60 µM
8,COc1cc([C@@H]2c3cc4c(cc3[C@H](O)[C@H]3COC(OCCO)[C@H]23)OCO4)cc(OC)c1OC (stereo not given in full),70 µM
9,COc1cc([C@@H]2c3cc4c(cc3[C@@H](O[C@@H]3O[C@@H]5CO[C@@H](C)O[C@H]5[C@H](O)[C@H]3O)[C@H]3COC(=O)[C@H]23)OCO4)cc(OC)c1O [ETOPOSIDE],25 µM
10,COc1cc([C@@H]2c3cc4c(cc3[C@H](O)[C@H]3COC(=O)[C@H]23)OCO4)cc(OC)c1OC [PODOFILOX],0.6 µM

# System: SW-620
# Test: In vitro cytotoxic activity against colon (SW 620) cancer cell line.
# Type: functional
# Conditions: Homo sapiens
row,SMILES,GI50
1,COc1cc([C@@H]2c3cc4c(cc3[C@H](O)[C@H]3COC(OCCF)[C@H]23)OCO4)cc(OC)c1OC (stereo not given in full),70 µM
2,COc1cc([C@@H]2c3cc4c(cc3[C@@H](O)[C@H]3COC(CC(C)=O)[C@@H]23)OCO4)cc(OC)c1O (stereo not given in full),0.1 µM
3,COCCOC1OC[C@H]2[C@H]1[C@H](c1cc(OC)c(OC)c(OC)c1)c1cc3c(cc1[C@@H]2O)OCO3 (stereo not given in full),80 µM
4,COc1cc([C@@H]2c3cc4c(cc3[C@H](O)[C@H]3COC(CCO)[C@H]23)OCO4)cc(OC)c1OC (stereo not given in full),> 100 µM
5,COC(=O)CC1OC[C@H]2[C@H]1[C@H](c1cc(OC)c(OC)c(OC)c1)c1cc3c(cc1[C@@H]2O)OCO3 (stereo not given in full),70 µM
6,COC(=O)CC1OC[C@H]2[C@H]1[C@H](c1cc(OC)c(O)c(OC)c1)c1cc3c(cc1[C@H]2O)OCO3 (stereo not given in full),20 µM
7,COc1cc([C@@H]2c3cc4c(cc3[C@H](O)[C@H]3COC(CC(C)=O)[C@H]23)OCO4)cc(OC)c1OC (stereo not given in full),60 µM
8,COc1cc([C@@H]2c3cc4c(cc3[C@H](O)[C@H]3COC(OCCO)[C@H]23)OCO4)cc(OC)c1OC (stereo not given in full),70 µM
9,COc1cc([C@@H]2c3cc4c(cc3[C@@H](O[C@@H]3O[C@@H]5CO[C@@H](C)O[C@H]5[C@H](O)[C@H]3O)[C@H]3COC(=O)[C@H]23)OCO4)cc(OC)c1O [ETOPOSIDE],90 µM
10,COc1cc([C@@H]2c3cc4c(cc3[C@H](O)[C@H]3COC(=O)[C@H]23)OCO4)cc(OC)c1OC [PODOFILOX],2 µM

# System: SK-OV-3
# Test: In vitro cytotoxic activity against Ovarian (SK-OV3) cell line.
# Type: functional
# Conditions: Homo sapiens
row,SMILES,GI50
1,COc1cc([C@@H]2c3cc4c(cc3[C@H](O)[C@H]3COC(OCCF)[C@H]23)OCO4)cc(OC)c1OC (stereo not given in full),> 100 µM
2,COc1cc([C@@H]2c3cc4c(cc3[C@@H](O)[C@H]3COC(CC(C)=O)[C@@H]23)OCO4)cc(OC)c1O (stereo not given in full),0.3 µM
3,COCCOC1OC[C@H]2[C@H]1[C@H](c1cc(OC)c(OC)c(OC)c1)c1cc3c(cc1[C@@H]2O)OCO3 (stereo not given in full),20 µM
4,COc1cc([C@@H]2c3cc4c(cc3[C@H](O)[C@H]3COC(CCO)[C@H]23)OCO4)cc(OC)c1OC (stereo not given in full),0.8 µM
5,COC(=O)CC1OC[C@H]2[C@H]1[C@H](c1cc(OC)c(OC)c(OC)c1)c1cc3c(cc1[C@@H]2O)OCO3 (stereo not given in full),4 µM
6,COC(=O)CC1OC[C@H]2[C@H]1[C@H](c1cc(OC)c(O)c(OC)c1)c1cc3c(cc1[C@H]2O)OCO3 (stereo not given in full),0.5 µM
7,COc1cc([C@@H]2c3cc4c(cc3[C@H](O)[C@H]3COC(CC(C)=O)[C@H]23)OCO4)cc(OC)c1OC (stereo not given in full),6 µM
8,COc1cc([C@@H]2c3cc4c(cc3[C@H](O)[C@H]3COC(OCCO)[C@H]23)OCO4)cc(OC)c1OC (stereo not given in full),0.09 µM
9,COc1cc([C@@H]2c3cc4c(cc3[C@@H](O[C@@H]3O[C@@H]5CO[C@@H](C)O[C@H]5[C@H](O)[C@H]3O)[C@H]3COC(=O)[C@H]23)OCO4)cc(OC)c1O [ETOPOSIDE],< 0.01 µM
10,COc1cc([C@@H]2c3cc4c(cc3[C@H](O)[C@H]3COC(=O)[C@H]23)OCO4)cc(OC)c1OC [PODOFILOX],0.9 µM

# System: NCI-H522
# Test: In vitro cytotoxic activity against lung (H 522) cancer cell line.
# Conditions: Homo sapiens
row,SMILES,GI50
1,COc1cc([C@@H]2c3cc4c(cc3[C@H](O)[C@H]3COC(OCCF)[C@H]23)OCO4)cc(OC)c1OC (stereo not given in full),80 µM
2,COc1cc([C@@H]2c3cc4c(cc3[C@@H](O)[C@H]3COC(CC(C)=O)[C@@H]23)OCO4)cc(OC)c1O (stereo not given in full),0.8 µM
3,COCCOC1OC[C@H]2[C@H]1[C@H](c1cc(OC)c(OC)c(OC)c1)c1cc3c(cc1[C@@H]2O)OCO3 (stereo not given in full),0.09 µM
4,COc1cc([C@@H]2c3cc4c(cc3[C@H](O)[C@H]3COC(CCO)[C@H]23)OCO4)cc(OC)c1OC (stereo not given in full),0.05 µM
5,COC(=O)CC1OC[C@H]2[C@H]1[C@H](c1cc(OC)c(OC)c(OC)c1)c1cc3c(cc1[C@@H]2O)OCO3 (stereo not given in full),8 µM
6,COC(=O)CC1OC[C@H]2[C@H]1[C@H](c1cc(OC)c(O)c(OC)c1)c1cc3c(cc1[C@H]2O)OCO3 (stereo not given in full),9 µM
7,COc1cc([C@@H]2c3cc4c(cc3[C@H](O)[C@H]3COC(CC(C)=O)[C@H]23)OCO4)cc(OC)c1OC (stereo not given in full),20 µM
8,COc1cc([C@@H]2c3cc4c(cc3[C@H](O)[C@H]3COC(OCCO)[C@H]23)OCO4)cc(OC)c1OC (stereo not given in full),10 µM
9,COc1cc([C@@H]2c3cc4c(cc3[C@@H](O[C@@H]3O[C@@H]5CO[C@@H](C)O[C@H]5[C@H](O)[C@H]3O)[C@H]3COC(=O)[C@H]23)OCO4)cc(OC)c1O [ETOPOSIDE],0.9 µM
10,COc1cc([C@@H]2c3cc4c(cc3[C@H](O)[C@H]3COC(=O)[C@H]23)OCO4)cc(OC)c1OC [PODOFILOX],0.7 µM
